The text below walks through data of PMC11648822, “Lactam Truncation Yields a Dihydroquinazolinone Scaffold with Potent Antimalarial Activity that Targets PfATP4” (Chemmedchem, 2024).

pEC50: −log10 of the molar value.

Assay [1] has as its target T1, PfATP4 (membranes prepared from 3D7 parasites) (Plasmodium falciparum, UniProt A0A143ZZK9).
T1 construct: The membranes were prepared from isolated trophozoite‐stage 3D7 parasites; endogenous in cells; host or cells: P. falciparum 3D7 trophozoites (membrane preparation)
The assay can be described thus: PfATP4 Na+ assay (membrane ATPase), 3D7 membranes. Particulars: for effect on membrane ATPase activity (PfATP4): 2 μM, high-[Na+] (152 mM), cipargamin not present. The class given is biochemical, P. falciparum. On the procedure: Figure 4 Dihydroquinazolinone analogs 14 and 36 (WJM062) inhibit Na^+‐ATPase activity in membranes prepared from isolated P. falciparum parasites, consistent with them being PfATP4 inhibitors. (A) The effects of dihydroquinazolinone compounds (2 μM), dihydroartemisinin (DHA; 50 nM; negative control) and 0.2 % v/v DMSO (solvent‐only control) on membrane ATPase activity under high‐[Na^+] conditions (152 mM Na^+) and low‐[Na^+] conditions (2 mM Na^+; stemming from the addition of 1 mM Na2ATP) in the presence and absence of the PfATP4 inhibitor cipargamin (50 nM). The membranes were prepared from isolated trophozoite‐stage 3D7 parasites. The Pi produced is expressed as a percentage of that measured in the 152 mM Na^+ Control. The data are from four independent experiments performed with different membrane preparations; the symbols show the data from individual experiments and the bars show the mean (+SEM). In individual experiments, the Pi produced in the 152 mM Na^+ Control varied from 66 to 96 nmol per mg (total) protein per min. A repeated measures ANOVA with a post hoc Tukey test was used to compare the (pre‐normalised) data for different compounds and conditions. For comparisons between different conditions for the same test compound (or for the Control), significant differences are shown with black asterisks. For comparisons between the Control and a compound under the same test condition, significant differences are shown with coloured asterisks (in this case, grey asterisks, as the only significant differences were between the control and the dihydroquinazolinone compounds in the 152 mM Na^+ condition). ***P<0.001. (B) Concentration‐dependence of the effects of dihydroquinazolinone compounds on PfATP4‐associated ATPase activity in membranes prepared from 3D7 parasites. The data are the mean (shown + or − SEM) obtained from four independent experiments performed with different membrane preparations, with the exception of the lowest and second‐lowest concentrations of the compounds, for which data are from two and three independent experiments, respectively. (C and D) Potency of dihydroquinazolinone compounds against PfATP4‐associated ATPase activity in membranes prepared from Dd2‐Polδ‐PfATP4^G358S parasites (open triangles) and their Dd2‐Polδ parents (closed triangles). The data are the mean (shown + or − SEM) from four (C) or three (D) independent experiments. In B−D, the Pi production measured in the low‐[Na^+] (2 mM) condition was subtracted from that measured in high‐[Na^+] (152 mM) in the presence of each of the different concentrations of dihydroquinazolinone compounds to calculate the PfATP4‐associated ATPase activity. The PfATP4‐associated ATPase activity is expressed as a percentage of that obtained for the high‐[Na^+] (152 mM) Control.
Membrane ATPase assays were performed using a PiColorLock Gold Phosphate Detection System (Innova Biosciences), essentially as described previously.[25] Membranes were prepared either from isolated 3D7 trophozoites or from isolated Dd2‐Polδ‐PfATP4^G358S [22] and Dd2‐Polδ trophozoites.[26]

For the next assay, the target named is T2, Dd2‐PfATP4^G358S (Plasmodium falciparum, UniProt A0A143ZZK9, G1128R/G358S).
T2 construct: We prepared membranes from Dd2‐Polδ‐PfATP4^G358S parasites (generated previously[22]); endogenous in cells; host or cells: P. falciparum Dd2-Polδ-PfATP4^G358S trophozoites (membrane preparation)
T2 sequence (A0A143ZZK9 1-1264 G358S/G1128R): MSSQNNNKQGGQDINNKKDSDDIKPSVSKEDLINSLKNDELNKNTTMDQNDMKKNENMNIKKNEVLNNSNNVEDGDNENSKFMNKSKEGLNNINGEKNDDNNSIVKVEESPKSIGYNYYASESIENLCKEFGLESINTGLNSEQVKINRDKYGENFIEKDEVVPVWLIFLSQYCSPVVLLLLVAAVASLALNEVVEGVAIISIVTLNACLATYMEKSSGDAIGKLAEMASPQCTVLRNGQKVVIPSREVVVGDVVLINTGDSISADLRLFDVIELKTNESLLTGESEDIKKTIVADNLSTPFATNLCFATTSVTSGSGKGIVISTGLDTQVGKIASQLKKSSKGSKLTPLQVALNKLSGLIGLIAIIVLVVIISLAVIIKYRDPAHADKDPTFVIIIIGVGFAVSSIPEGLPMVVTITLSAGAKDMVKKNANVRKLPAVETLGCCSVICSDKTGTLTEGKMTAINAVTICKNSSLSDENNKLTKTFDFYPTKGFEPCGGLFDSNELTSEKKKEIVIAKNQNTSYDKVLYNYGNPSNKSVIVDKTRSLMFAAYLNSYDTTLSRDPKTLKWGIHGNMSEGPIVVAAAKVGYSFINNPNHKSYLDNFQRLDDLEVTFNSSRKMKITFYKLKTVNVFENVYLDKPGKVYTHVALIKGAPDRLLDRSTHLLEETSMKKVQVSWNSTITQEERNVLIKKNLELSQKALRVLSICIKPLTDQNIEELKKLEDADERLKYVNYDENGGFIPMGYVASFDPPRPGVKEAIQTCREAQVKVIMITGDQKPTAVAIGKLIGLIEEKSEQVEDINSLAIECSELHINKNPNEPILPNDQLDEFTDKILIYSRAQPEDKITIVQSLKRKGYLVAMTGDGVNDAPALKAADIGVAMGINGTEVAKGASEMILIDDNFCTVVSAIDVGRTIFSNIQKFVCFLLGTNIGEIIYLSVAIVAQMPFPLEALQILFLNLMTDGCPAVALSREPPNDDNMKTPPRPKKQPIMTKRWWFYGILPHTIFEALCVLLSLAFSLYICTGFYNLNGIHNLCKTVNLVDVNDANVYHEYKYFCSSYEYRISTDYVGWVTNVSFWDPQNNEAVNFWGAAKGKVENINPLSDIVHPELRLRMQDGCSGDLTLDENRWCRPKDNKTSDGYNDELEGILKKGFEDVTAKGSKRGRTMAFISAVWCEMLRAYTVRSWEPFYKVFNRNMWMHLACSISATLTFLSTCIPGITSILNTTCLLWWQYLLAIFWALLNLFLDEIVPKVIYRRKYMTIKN
The assay can be described thus: PfATP4 Na+ assay (membrane ATPase), Dd2-Polδ-PfATP4^G358S membranes. The format is biochemical, P. falciparum. The following applies: membranes from Dd2-Polδ-PfATP4^G358S parasites. On the procedure: Figure 4 Dihydroquinazolinone analogs 14 and 36 (WJM062) inhibit Na^+‐ATPase activity in membranes prepared from isolated P. falciparum parasites, consistent with them being PfATP4 inhibitors. (A) The effects of dihydroquinazolinone compounds (2 μM), dihydroartemisinin (DHA; 50 nM; negative control) and 0.2 % v/v DMSO (solvent‐only control) on membrane ATPase activity under high‐[Na^+] conditions (152 mM Na^+) and low‐[Na^+] conditions (2 mM Na^+; stemming from the addition of 1 mM Na2ATP) in the presence and absence of the PfATP4 inhibitor cipargamin (50 nM). The membranes were prepared from isolated trophozoite‐stage 3D7 parasites. The Pi produced is expressed as a percentage of that measured in the 152 mM Na^+ Control. The data are from four independent experiments performed with different membrane preparations; the symbols show the data from individual experiments and the bars show the mean (+SEM). In individual experiments, the Pi produced in the 152 mM Na^+ Control varied from 66 to 96 nmol per mg (total) protein per min. A repeated measures ANOVA with a post hoc Tukey test was used to compare the (pre‐normalised) data for different compounds and conditions. […] In B−D, the Pi production measured in the low‐[Na^+] (2 mM) condition was subtracted from that measured in high‐[Na^+] […] The PfATP4‐associated ATPase activity is expressed as a percentage of that obtained for the high‐[Na^+] […]

T1 sequence (A0A143ZZK9 whole entry): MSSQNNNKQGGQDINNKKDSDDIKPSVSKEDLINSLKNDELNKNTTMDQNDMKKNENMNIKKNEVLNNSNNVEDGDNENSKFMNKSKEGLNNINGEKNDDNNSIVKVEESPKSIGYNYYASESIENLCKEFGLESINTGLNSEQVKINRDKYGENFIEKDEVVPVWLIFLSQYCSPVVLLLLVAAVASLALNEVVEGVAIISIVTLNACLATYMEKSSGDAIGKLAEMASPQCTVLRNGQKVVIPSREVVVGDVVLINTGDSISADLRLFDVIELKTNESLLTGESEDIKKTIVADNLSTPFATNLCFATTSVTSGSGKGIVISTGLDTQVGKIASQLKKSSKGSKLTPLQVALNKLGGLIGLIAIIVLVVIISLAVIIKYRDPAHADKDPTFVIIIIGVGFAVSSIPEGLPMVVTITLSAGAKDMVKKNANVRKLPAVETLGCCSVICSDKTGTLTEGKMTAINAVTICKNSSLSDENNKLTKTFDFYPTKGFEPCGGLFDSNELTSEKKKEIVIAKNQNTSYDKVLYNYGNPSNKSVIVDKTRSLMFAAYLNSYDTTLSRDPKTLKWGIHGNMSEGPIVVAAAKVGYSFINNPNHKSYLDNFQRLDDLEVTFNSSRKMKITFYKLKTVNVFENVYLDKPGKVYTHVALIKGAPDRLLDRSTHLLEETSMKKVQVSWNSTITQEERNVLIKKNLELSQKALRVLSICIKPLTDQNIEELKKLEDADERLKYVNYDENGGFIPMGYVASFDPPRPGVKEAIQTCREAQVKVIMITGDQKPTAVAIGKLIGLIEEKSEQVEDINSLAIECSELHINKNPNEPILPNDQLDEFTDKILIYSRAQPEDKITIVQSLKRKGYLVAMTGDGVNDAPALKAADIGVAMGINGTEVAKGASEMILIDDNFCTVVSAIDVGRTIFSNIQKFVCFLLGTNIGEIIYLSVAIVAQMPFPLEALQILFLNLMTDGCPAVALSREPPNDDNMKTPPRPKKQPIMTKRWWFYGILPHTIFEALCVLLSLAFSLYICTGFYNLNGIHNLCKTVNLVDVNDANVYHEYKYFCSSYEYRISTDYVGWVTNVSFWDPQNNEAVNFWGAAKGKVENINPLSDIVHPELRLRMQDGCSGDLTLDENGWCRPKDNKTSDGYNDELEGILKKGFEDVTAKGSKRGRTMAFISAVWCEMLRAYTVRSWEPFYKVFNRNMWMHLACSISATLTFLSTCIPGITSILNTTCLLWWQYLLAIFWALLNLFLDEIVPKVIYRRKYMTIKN

Usually pEC50 stands for −log10 of the EC50, conventionally taken in molar units. A lower pEC50 goes with a large EC50. On to `COc1cc(F)c2c(c1)NC(C)(C(=O)Nc1cncc(Cl)c1)N(C)C2=O` (stereo not drawn) [Compound 36, N‐(5‐Chloropyridin‐3‐yl)‐5‐fluoro‐7‐methoxy‐2,3‐dimethyl‐4‐oxo‐1,2,3,4‐tetrahydroquinazoline‐2‐carboxamide], for which, in assay [1], the pEC50 is 8.07 and the “effect on membrane ATPase activity (PfATP4)” value is “complete inhibition”. The pEC50 at Dd2‐PfATP4^G358S was 7.94.

`CN1C(=O)c2ccc(Cl)cc2NC1(C)C(=O)Nc1cncc(Cl)c1` (stereo not drawn) [Compound 14, 7‐Chloro‐N‐(5‐chloro‐3‐pyridyl)‐2,3‐dimethyl‐4‐oxo‐1H‐quinazoline‐2‐carboxamide]: the figures for the pEC50 (in assay [1]; on Dd2‐PfATP4^G358S) were 8.14 and 7.92, respectively. The “effect on membrane ATPase activity (PfATP4)” value in assay [1] is on record as “complete inhibition”.
